Patent US6653321B1, “Naphthylsulfonic acids and related compounds as glucose uptake agonists” (Telik, Inc., priority 1999, dated 2003)

target: T1, β-kinase domain of the human insulin receptor (CKD) (Homo sapiens, UniProt P06213); assay: 32P-Cytoplasmic Kinase Domain (CKD) autophosphorylation assay; format: biochemical; conditions: 32P incorporated into CKD band, percentage of the vehicle (DMSO) level; 10 minutes at room temperature; compound concentration not given
T1 construct: The complete β-kinase domain of the human insulin receptor (CKD); made in house
T1 sequence (P06213 980-1382 limits assumed): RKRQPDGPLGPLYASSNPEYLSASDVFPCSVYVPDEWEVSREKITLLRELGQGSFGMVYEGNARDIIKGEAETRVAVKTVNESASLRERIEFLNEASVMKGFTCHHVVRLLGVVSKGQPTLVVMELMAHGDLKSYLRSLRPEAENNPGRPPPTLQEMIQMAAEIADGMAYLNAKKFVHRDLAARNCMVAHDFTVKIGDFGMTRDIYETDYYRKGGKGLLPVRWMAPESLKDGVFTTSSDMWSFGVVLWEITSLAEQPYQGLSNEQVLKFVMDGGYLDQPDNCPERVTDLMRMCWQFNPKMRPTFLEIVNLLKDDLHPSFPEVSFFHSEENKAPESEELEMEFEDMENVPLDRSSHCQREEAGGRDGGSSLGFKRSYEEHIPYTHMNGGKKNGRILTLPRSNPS
Procedure: The complete β-kinase domain of the human insulin receptor (CKD) was expressed in, and purified from, baculovirus. CKD (4.0 μg/mL), in a solution of 50 mM Tris.HCl, 2 mM MnCl2, 10 mM MgCl2 (50 μl final volume), was combined with […] ATP, and 5 μCi ^32P-ATP (3000 Ci/mmol.). A test compound, or the vehicle (DMSO), was added to a final DMSO concentration of 1%. The mixture was incubated for 10 minutes at room temperature. The reaction was terminated by the addition of 10 μl of 200 mM EDTA. A 30 μl volume was removed, mixed with 5 μl of 6×Laemmeli sodium dodecyl sulfate (SDS) treatment buffer, and heated to 94° C. for 5 minutes. A 20 μl aliquot was then run on an SDS-PAGE gel. The radioactivity incorporated into the CKD band is quantified by phosphorimaging of the gel, or scintillation counting of the excised bands.
The potency of a compound for increasing phosphorylation is expressed as a percentage of the vehicle level.

| Structure (SMILES) | Activity (% Control) |
| --- | --- |
| O=C(Nc1cccc2cc(S(=O)(=O)O)ccc12)c1cc(NC(=O)c2cccc3ccccc23)cc(C(=O)Nc2cccc3cc(S(=O)(=O)O)ccc23)c1 [Compound 25, 5-({3-(1-naphthylcarbonylamino)-5-[N-(6-sulfonaphthyl)carbamoyl]phenyl}carbonylamino)naphthalene-2-sulfonic acid] | 83.7 % Control |
| N[C@@H](CC(=O)O)C(=O)Nc1cc(C(=O)Nc2cccc3cc(S(=O)(=O)O)ccc23)cc(C(=O)Nc2cccc3cc(S(=O)(=O)O)ccc23)c1 [Compound 26, (3S)-3-amino-3-(N-{3,5-bis[N-(6-sulfonaphthyl)carbamoyl]phenyl}carbamoyl)propanoic acid] | 91.4 % Control |
| O=C(O)CC(C(=O)Nc1cc(C(=O)Nc2cccc3cc(S(=O)(=O)O)ccc23)cc(C(=O)Nc2cccc3cc(S(=O)(=O)O)ccc23)c1)c1ccccc1 (stereo not shown) [Compound 27, 3-(N-{3,5-bis[N-(6-sulfonaphthyl)carbamoyl]phenyl}carbamoyl)-3-phenylpropanoic acid] | 161.2 % Control |
| O=C(CC(C(=O)O)c1ccccc1)Nc1cc(C(=O)Nc2cccc3cc(S(=O)(=O)O)ccc23)cc(C(=O)Nc2cccc3cc(S(=O)(=O)O)ccc23)c1 (stereo not shown) [Compound 28, 3-(N-{3,5-bis[N-(6-sulfonaphthyl)carbamoyl]phenyl}carbamoyl)-2-phenylpropanoic acid] | 84.6 % Control |
| O=C(O)CCC(=O)Nc1cc(C(=O)Nc2cccc3cc(S(=O)(=O)O)ccc23)cc(C(=O)Nc2cccc3cc(S(=O)(=O)O)ccc23)c1 [Compound 32, 3-(N-{3,5-bis[N-(6-sulfonaphthyl)carbamoyl]phenyl}carbamoyl)propanoic acid] | 109.9 % Control |
| O=C(Nc1cccc2cc(S(=O)(=O)O)ccc12)c1cc(NC(=O)C2CCCCC2)cc(C(=O)Nc2cccc3cc(S(=O)(=O)O)ccc23)c1 [Compound 33, 5-({3-(cyclohexylcarbonylamino)-5-[N-(6-sulfonaphthyl)carbamoyl]phenyl}carbonylamino)naphthalene-2-sulfonic acid] | 122.5 % Control |
| O=C(COc1ccccc1)Nc1cc(C(=O)Nc2cccc3cc(S(=O)(=O)O)ccc23)cc(C(=O)Nc2cccc3cc(S(=O)(=O)O)ccc23)c1 [Compound 38, 5-({3-(2-phenoxyacetylamino)-5-[N-(6-sulfonaphthyl)carbamoyl]phenyl}carbonylamino)naphthalene-2-sulfonic acid] | 84.7 % Control |
| COc1ccc(CC(=O)Nc2cc(C(=O)Nc3cccc4cc(S(=O)(=O)O)ccc34)cc(C(=O)Nc3cccc4cc(S(=O)(=O)O)ccc34)c2)cc1 [Compound 41, 5-({3-[2-(4-methoxyphenyl)acetylamino]-5-[N-(6-sulfonaphthyl)carbamoyl]phenyl}carbonylamino)naphthalene-2-sulfonic acid] | 136.6 % Control |
| Cc1ccc(NC(=O)CCC(=O)Nc2cc(C(=O)Nc3cccc4cc(S(=O)(=O)O)ccc34)cc(C(=O)Nc3cccc4cc(S(=O)(=O)O)ccc34)c2)cc1 [Compound 42, 5-[(3-{3-[N-(4-methylphenyl)carbamoyl]propanoylamino}-5-[N-(6-sulfonaphthyl)carbamoyl]phenyl)carbonylamino]naphthalene-2-sulfonic acid] | 116.7 % Control |
| Cc1ccc(CC(=O)Nc2cc(C(=O)Nc3cccc4cc(S(=O)(=O)O)ccc34)cc(C(=O)Nc3cccc4cc(S(=O)(=O)O)ccc34)c2)cc1 [Compound 43, 5-({3-[2-(4-methylphenyl)acetylamino]-5-[N-(6-sulfonaphthyl)carbamoyl]phenyl}carbonylamino)naphthalene-2-sulfonic acid] | 124.2 % Control |
| O=C(Nc1cccc2cc(S(=O)(=O)O)ccc12)c1cc(NS(=O)(=O)c2ccccc2)cc(C(=O)Nc2cccc3cc(S(=O)(=O)O)ccc23)c1 [Compound 48, 5-({3-[(phenylsulfonyl)amino]-5-[N-(6-sulfonaphthyl)carbamoyl]phenyl}carbonylamino)naphthalene-2-sulfonic acid] | 114.2 % Control |
| O=C(Nc1cccc2cc(S(=O)(=O)O)ccc12)c1cc(NS(=O)(=O)c2ccc3ccccc3c2)cc(C(=O)Nc2cccc3cc(S(=O)(=O)O)ccc23)c1 [Compound 49, 5-({3-[(2-naphthylsulfonyl)amino]-5-[N-(6-sulfonaphthyl)carbamoyl]phenyl}carbonylamino)naphthalene-2-sulfonic acid] | 109.3 % Control |
| O=C(Nc1cccc2cc(S(=O)(=O)O)ccc12)c1cc(NS(=O)(=O)c2ccc(Cl)cc2)cc(C(=O)Nc2cccc3cc(S(=O)(=O)O)ccc23)c1 [Compound 50, 5-[(3-{[(4-chlorophenyl)sulfonyl]amino}-5-[N-(6-sulfonaphthyl)carbamoyl]phenyl)carbonylamino]naphthalene-2-sulfonic acid] | 123.8 % Control |

Continued, values first:

| Activity (% Control) | Structure (SMILES) |
| --- | --- |
| 88.6 % Control | O=C(Nc1cc(C(=O)Nc2cccc3cc(S(=O)(=O)O)ccc23)cc(C(=O)Nc2cccc3cc(S(=O)(=O)O)ccc23)c1)c1ccc(F)cc1 [Compound 12, 5-({3-[(4-fluorophenyl)carbonylamino]-5-[N-(6-sulfonaphthyl)carbamoyl]phenyl}carbonylamino)naphthalene-2-sulfonic acid] |
| 81.7 % Control | O=C(Nc1cc(C(=O)Nc2cccc3cc(S(=O)(=O)O)ccc23)cc(C(=O)Nc2cccc3cc(S(=O)(=O)O)ccc23)c1)c1ccc([N+](=O)[O-])cc1 [Compound 14, 5-({3-[(4-nitrophenyl)carbonylamino]-5-[N-(6-sulfonaphthyl)carbamoyl]phenyl}carbonylamino)naphthalene-2-sulfonic acid] |
| 84.9 % Control | O=C(Nc1cccc2cc(S(=O)(=O)O)ccc12)c1cc(NC(=O)c2c(Cl)ccc(Cl)c2C(=O)O)cc(C(=O)Nc2cccc3cc(S(=O)(=O)O)ccc23)c1 [Compound 20] |
| 89.6 % Control | O=C(Nc1cc(C(=O)Nc2cccc3cc(S(=O)(=O)O)ccc23)cc(C(=O)Nc2cccc3cc(S(=O)(=O)O)ccc23)c1)c1ccc2ccccc2c1 [Compound 24, 5-({3-(2-naphthylcarbonylamino)-5-[N-(6-sulfonaphthyl)carbamoyl]phenyl}carbonylamino)naphthalene-2-sulfonic acid] |
| 75.6 % Control | O=C(Nc1cccc2cc(S(=O)(=O)O)ccc12)c1cc(NC(=O)c2ccccc2S(=O)(=O)O)cc(C(=O)Nc2cccc3cc(S(=O)(=O)O)ccc23)c1 [Compound 29, 5-({5-[N-(6-sulfonaphthyl)carbamoyl]-3-[(2-sulfophenyl)carbonylamino]phenyl}carbonylamino)naphthalene-2-sulfonic acid] |
| 84.1 % Control | O=C(O)c1cccc(C(=O)Nc2cc(C(=O)Nc3cccc4cc(S(=O)(=O)O)ccc34)cc(C(=O)Nc3cccc4cc(S(=O)(=O)O)ccc34)c2)c1 [Compound 30, 3-(N-{3,5-bis[N-(6-sulfonaphthyl)carbamoyl]phenyl}carbamoyl)benzoic acid] |
| 159.2 % Control | O=C(O)c1ccc(C(=O)Nc2cc(C(=O)Nc3cccc4cc(S(=O)(=O)O)ccc34)cc(C(=O)Nc3cccc4cc(S(=O)(=O)O)ccc34)c2)cc1 [Compound 31, 4-(N-{3,5-bis[N-(6-sulfonaphthyl)carbamoyl]phenyl}carbamoyl)benzoic acid] |
| 119.5 % Control | O=C(Nc1cccc2cc(S(=O)(=O)O)ccc12)c1cc(NC(=O)c2ccco2)cc(C(=O)Nc2cccc3cc(S(=O)(=O)O)ccc23)c1 [Compound 34, 5-({3-(2-furylcarbonylamino)-5-[N-(6-sulfonaphthyl)carbamoyl]phenyl}carbonylamino)naphthalene-2-sulfonic acid] |
| 105.9 % Control | O=C(Nc1cc(C(=O)Nc2cccc3cc(S(=O)(=O)O)ccc23)cc(C(=O)Nc2cccc3cc(S(=O)(=O)O)ccc23)c1)c1ccncc1 [Compound 35, 5-({3-(4-pyridylcarbonylamino)-5-[N-(6-sulfonaphthyl)carbamoyl]phenyl}carbonylamino)naphthalene-2-sulfonic acid] |
| 123.2 % Control | O=C(Nc1cc(C(=O)Nc2cccc3cc(S(=O)(=O)O)ccc23)cc(C(=O)Nc2cccc3cc(S(=O)(=O)O)ccc23)c1)c1cccnc1 [Compound 36, 5-({3-(3-pyridylcarbonylamino)-5-[N-(6-sulfonaphthyl)carbamoyl]phenyl}carbonylamino)naphthalene-2-sulfonic acid] |
| 113.2 % Control | O=C(Cc1ccccc1)Nc1cc(C(=O)Nc2cccc3cc(S(=O)(=O)O)ccc23)cc(C(=O)Nc2cccc3cc(S(=O)(=O)O)ccc23)c1 [Compound 37, 5-({3-(2-phenylacetylamino)-5-[N-(6-sulfonaphthyl)carbamoyl]phenyl}carbonylamino)naphthalene-2-sulfonic acid] |
| 124.8 % Control | O=C(Cc1cccc(Cl)c1)Nc1cc(C(=O)Nc2cccc3cc(S(=O)(=O)O)ccc23)cc(C(=O)Nc2cccc3cc(S(=O)(=O)O)ccc23)c1 [Compound 44, 5-({3-[2-(3-chlorophenyl)acetylamino]-5-[N-(6-sulfonaphthyl)carbamoyl]phenyl}carbonylamino)naphthalene-2-sulfonic acid] |
